Holding throughout (format): cell-based
Test [1] has as its target T1, human TLR7 (Homo sapiens, UniProt Q9NYK1).
T1 construct: host or cells: HEK-Blue cells
T1 sequence (Q9NYK1 27-1049): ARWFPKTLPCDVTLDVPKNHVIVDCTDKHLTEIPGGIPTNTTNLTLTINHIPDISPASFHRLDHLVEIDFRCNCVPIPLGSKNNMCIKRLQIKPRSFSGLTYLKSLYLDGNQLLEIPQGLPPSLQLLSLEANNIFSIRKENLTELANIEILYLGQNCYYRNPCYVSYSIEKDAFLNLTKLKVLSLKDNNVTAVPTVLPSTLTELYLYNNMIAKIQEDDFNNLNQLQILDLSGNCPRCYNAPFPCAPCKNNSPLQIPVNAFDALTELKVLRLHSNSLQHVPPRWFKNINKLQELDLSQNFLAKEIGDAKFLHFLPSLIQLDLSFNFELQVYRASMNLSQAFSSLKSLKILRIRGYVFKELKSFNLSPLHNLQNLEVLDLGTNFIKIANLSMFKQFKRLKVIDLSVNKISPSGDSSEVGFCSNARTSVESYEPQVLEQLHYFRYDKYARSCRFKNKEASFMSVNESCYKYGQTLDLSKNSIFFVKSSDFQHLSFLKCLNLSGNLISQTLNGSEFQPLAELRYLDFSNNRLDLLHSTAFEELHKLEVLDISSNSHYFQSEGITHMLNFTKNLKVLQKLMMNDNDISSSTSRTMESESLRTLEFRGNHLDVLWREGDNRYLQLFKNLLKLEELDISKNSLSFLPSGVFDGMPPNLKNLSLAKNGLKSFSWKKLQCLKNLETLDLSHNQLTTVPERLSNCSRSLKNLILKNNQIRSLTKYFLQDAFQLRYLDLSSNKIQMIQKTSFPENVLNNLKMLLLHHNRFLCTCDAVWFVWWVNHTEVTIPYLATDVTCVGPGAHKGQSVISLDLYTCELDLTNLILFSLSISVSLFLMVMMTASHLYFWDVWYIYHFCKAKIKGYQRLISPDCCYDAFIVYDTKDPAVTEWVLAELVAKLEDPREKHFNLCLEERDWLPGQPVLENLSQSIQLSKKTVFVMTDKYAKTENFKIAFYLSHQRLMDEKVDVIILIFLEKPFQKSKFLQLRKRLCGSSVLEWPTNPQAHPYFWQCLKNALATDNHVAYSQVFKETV
The experiment in a line: TLR7 inhibition reporter assay (HEK-Blue SEAP reporter, gardiquimod stimulation). Particulars: HEK-Blue cells overexpressing human TLR7, SEAP reporter, gardiquimod 7.5 μM, 22 hour incubation. The essentials:
(§1)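 Agonists used: gardiquimod 7.5 μM (TLR7), R848 15.9 μM (TLR8), ODN2006 5 nM (TLR9), added after 30 min room-temperature compound pre-treatment (0.05 nM–50 μM) of receptor-overexpressing HEK-Blue cells. SEAP reporter (NF-κB/AP-1 driven) read after 22 h at 37 °C; inhibition scaled between agonist+DMSO and reference-inhibitor wells.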
In general terms: Reporter assays use an easily measured gene product as a stand-in for the process of interest.

Test [2] concerns the target T2, human TLR8 (Homo sapiens, UniProt Q9NR97).
T2 construct: host or cells: HEK-Blue cells
T2 sequence (Q9NR97 27-1041): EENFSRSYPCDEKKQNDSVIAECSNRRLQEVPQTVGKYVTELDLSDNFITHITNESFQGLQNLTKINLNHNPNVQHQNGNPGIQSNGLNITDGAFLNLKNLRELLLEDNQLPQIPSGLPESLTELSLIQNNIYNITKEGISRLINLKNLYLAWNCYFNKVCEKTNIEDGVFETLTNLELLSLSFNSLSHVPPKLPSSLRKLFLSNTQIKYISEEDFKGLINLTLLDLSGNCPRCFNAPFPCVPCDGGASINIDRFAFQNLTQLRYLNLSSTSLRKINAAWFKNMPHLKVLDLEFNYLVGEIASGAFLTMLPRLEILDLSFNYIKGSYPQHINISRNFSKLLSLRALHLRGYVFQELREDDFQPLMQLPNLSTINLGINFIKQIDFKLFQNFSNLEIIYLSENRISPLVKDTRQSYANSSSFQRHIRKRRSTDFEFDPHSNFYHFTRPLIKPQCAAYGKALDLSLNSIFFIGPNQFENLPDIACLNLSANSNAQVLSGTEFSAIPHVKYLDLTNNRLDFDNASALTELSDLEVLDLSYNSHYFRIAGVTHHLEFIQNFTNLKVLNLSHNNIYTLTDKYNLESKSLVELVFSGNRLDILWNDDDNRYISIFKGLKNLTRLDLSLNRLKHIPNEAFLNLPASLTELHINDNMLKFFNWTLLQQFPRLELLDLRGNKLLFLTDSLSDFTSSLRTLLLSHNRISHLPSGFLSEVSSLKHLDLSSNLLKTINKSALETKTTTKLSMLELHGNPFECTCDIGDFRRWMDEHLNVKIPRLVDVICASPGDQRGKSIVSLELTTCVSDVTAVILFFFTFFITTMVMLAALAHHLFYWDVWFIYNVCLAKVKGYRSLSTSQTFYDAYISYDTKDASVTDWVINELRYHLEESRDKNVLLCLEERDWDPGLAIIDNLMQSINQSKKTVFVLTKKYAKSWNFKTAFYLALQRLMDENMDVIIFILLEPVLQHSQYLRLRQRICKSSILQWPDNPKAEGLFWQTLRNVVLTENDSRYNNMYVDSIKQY
The experiment in a line: TLR8 inhibition reporter assay (HEK-Blue SEAP reporter, R848 stimulation). As to conditions: HEK-Blue cells overexpressing human TLR8, SEAP reporter, R848 15.9 μM, 22 hour incubation. A digest of the protocol: as §1

Test [3] concerns the target T3, human TLR9 (Homo sapiens, UniProt Q9NR96).
T3 construct: host or cells: HEK-Blue cells
T3 sequence (Q9NR96 26-1032): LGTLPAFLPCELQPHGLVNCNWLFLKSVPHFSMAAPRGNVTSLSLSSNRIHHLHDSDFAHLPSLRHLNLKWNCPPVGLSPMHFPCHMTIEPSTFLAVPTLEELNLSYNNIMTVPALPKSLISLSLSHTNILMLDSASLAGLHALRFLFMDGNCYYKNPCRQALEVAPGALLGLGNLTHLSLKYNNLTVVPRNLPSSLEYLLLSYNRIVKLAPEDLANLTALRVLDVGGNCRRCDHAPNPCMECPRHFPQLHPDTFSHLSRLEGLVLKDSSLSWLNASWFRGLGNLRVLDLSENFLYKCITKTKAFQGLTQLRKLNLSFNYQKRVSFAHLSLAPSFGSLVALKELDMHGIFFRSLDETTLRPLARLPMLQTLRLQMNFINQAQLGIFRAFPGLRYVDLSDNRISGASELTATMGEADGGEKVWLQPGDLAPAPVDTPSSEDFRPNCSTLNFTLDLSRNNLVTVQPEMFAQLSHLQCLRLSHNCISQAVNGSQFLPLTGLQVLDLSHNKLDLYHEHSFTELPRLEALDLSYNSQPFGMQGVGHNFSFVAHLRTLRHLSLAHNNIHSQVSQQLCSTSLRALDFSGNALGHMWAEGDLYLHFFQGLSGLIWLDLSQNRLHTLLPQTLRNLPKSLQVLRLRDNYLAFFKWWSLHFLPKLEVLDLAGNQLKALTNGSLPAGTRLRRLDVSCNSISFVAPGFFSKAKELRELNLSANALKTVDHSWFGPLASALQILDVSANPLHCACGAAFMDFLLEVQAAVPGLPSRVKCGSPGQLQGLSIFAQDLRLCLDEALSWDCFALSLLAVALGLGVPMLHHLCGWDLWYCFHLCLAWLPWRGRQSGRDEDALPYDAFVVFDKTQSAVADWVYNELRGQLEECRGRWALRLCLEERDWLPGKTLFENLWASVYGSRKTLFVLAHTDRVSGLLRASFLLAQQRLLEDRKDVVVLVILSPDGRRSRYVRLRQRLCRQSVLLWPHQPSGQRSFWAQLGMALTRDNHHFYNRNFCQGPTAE
In words: TLR9 inhibition reporter assay (HEK-Blue SEAP reporter, ODN2006 stimulation). As to conditions: HEK-Blue cells overexpressing human TLR9, SEAP reporter, ODN2006 5 nM, 22 hour incubation. A digest of the protocol: as §1

IC50 data for 13 compounds are collected here from patent US11447466B2, “Substituted indole compounds useful as inhibitors of TLR7/8/9” (BRISTOL-MYERS SQUIBB COMPANY, priority 2017, dated 2022).

pIC50: −log10 of the molar value.

The pIC50 is −log10 of the IC50, conventionally taken in molar units. A higher pIC50 goes with a low IC50. Turning to `Cc1cc(-c2[nH]c3ccc(C4CCN(CC(C)C)CC4)cc3c2C(C)C)cn(C)c1=O` [Example 75, 5-(5-(1-isobutylpiperidin-4-yl)-3-isopropyl-1H-indol-2-yl)-1,3-dimethylpyridin-2(1H)-one], the pIC50 in test [1] is 8.30; in test [2] it was 8.25; in test [3] it was 5.03.

As to `Cc1c(-c2[nH]c3ccc(C4CCNCC4)cc3c2C(C)C)cn(C)c(=O)c1C` [Example 14, 5-(3-isopropyl-5-(piperidin-4-yl)-1H-indol-2-yl)-1,3,4-trimethylpyridin-2(1H)-one], the figures for the pIC50 in test [1], in test [2] and in test [3] were 8.46, 8.44 and 5.78, respectively.

For `COc1c(C)c(-c2[nH]c3ccc(C4CCN(CC(=O)N(C)C)CC4)cc3c2C(C)C)cn(C)c1=O` [Example 141, 2-(4-(3-isopropyl-2-(5-methoxy-1,4-dimethyl-6-oxo-1,6-dihydropyridin-3-yl)-1H-indol-5-yl)piperidin-1-yl)-N,N-dimethylacetamide], the pIC50 in test [1] was 7.55; in test [2] it was 7.43; in test [3], 5.35.

For `CNC(=O)CN1CCC(c2ccc3[nH]c(-c4cc(C)c(=O)n(CC(C)C)c4)c(C(C)C)c3c2)CC1` [Example 161, 2-(4-(2-(1-isobutyl-5-methyl-6-oxo-1,6-dihydropyridin-3-yl)-3-isopropyl-1H-indol-5-yl)piperidin-1-yl)-N-methylacetamide], the negative-log IC50 (pIC50) in test [1] is 7.30; in test [2], 6.62; in test [3], 5.06.

Regarding `CCNC(=O)CN1CCC(c2ccc3[nH]c(-c4cn(C)c(=O)c(Cl)c4C)c(C(C)C)c3c2)CC1` [Example 155, 2-(4-(2-(5-chloro-1,4-dimethyl-6-oxo-1,6-dihydropyridin-3-yl)-3-isopropyl-1H-indol-5-yl)piperidin-1-yl)-N-ethylacetamide], the negative logarithm of the IC50 (pIC50) is 8.28 in test [1], 7.62 in test [2] and 4.67 in test [3].

As for `CNC(=O)CN1CCC(c2ccc3[nH]c(-c4cn(C)c(=O)c(OC)c4C)c(C(C)C)c3c2)CC1` [Example 140, 2-(4-(3-isopropyl-2-(5-methoxy-1,4-dimethyl-6-oxo-1,6-dihydropyridin-3-yl)-1H-indol-5-yl)piperidin-1-yl)-N-methylacetamide], the figures for the pIC50 in test [1], in test [2] and in test [3] were 7.32, 7.40 and 4.66, respectively.

In the case of `Cc1nc(-c2[nH]c3ccc(C4CCN(C)CC4)cc3c2C(C)C)cn(C)c1=O` [Example 183, 5-(3-isopropyl-5-(1-methylpiperidin-4-yl)-1H-indol-2-yl)-1,3-dimethylpyrazin-2(1H)-one], the pIC50 in test [1] was 7.55; in test [2], 7.50; in test [3], 5.02.

In the case of `COc1cc(-c2[nH]c3ccc(C4CCN(CC(=O)N(C)C)CC4)cc3c2C(C)C)cn(C)c1=O` [Example 128, 2-(4-(3-isopropyl-2-(5-methoxy-1-methyl-6-oxo-1,6-dihydropyridin-3-yl)-1H-indol-5-yl)piperidin-1-yl)-N,N-dimethylacetamide], the pIC50 in test [1] is 8.52; in test [2], 8.24; in test [3] it was 6.01.

On to `Cc1cc(-c2[nH]c3ccc(C4CCN(CC(=O)N(C)C)CC4)cc3c2C(C)C)cn(CC(F)(F)F)c1=O` [Example 165, 2-(4-(3-isopropyl-2-(5-methyl-6-oxo-1-(2,2,2-trifluoroethyl)-1,6-dihydropyridin-3-yl)-1H-indol-5-yl)piperidin-1-yl)-N,N-dimethylacetamide], for which the pIC50 in test [1] is 7.34; in test [2] it was 6.95; in test [3] it was 5.00.

Take `CCCN1CCC(c2ccc3[nH]c(-c4cc(-c5cncc(C)c5)c(=O)n(C)c4)c(C(C)C)c3c2)CC1` [Example 332, 5-(3-isopropyl-5-(1-propylpiperidin-4-yl)-1H-indol-2-yl)-1,5′-dimethyl-[3,3′-bipyridin]-2(1H)-one]: the figures for the negative logarithm of the IC50 (pIC50) in test [1], in test [2] and in test [3] were 8.31, 8.96 and 6.10, respectively.

Consider `CCc1cc(-c2[nH]c3ccc(C4CCNCC4)cc3c2C(C)C)c(C)n(C)c1=O` [Example 25, 3-ethyl-5-(3-isopropyl-5-(piperidin-4-yl)-1H-indol-2-yl)-1,6-dimethylpyridin-2(1H)-one], for which the pIC50 in test [1] was 7.39; in test [2] it was 8.11; in test [3] it was 5.86.

For `CC(C)c1c(-c2cc(N)c(=O)n(C)c2)[nH]c2ccc(C3CCNCC3)cc12` [Example 9, 3-amino-5-(3-isopropyl-5-(piperidin-4-yl)-1H-indol-2-yl)-1-methylpyridin-2(1H)-one], the pIC50 in test [1] is 7.29; in test [2], 7.94; in test [3], 6.06.

Take `CCn1cc(-c2[nH]c3ccc(C4CCN(CC(=O)NC)CC4)cc3c2C(C)C)cc(C)c1=O` [Example 132, 2-(4-(2-(1-ethyl-5-methyl-6-oxo-1,6-dihydropyridin-3-yl)-3-isopropyl-1H-indol-5-yl)piperidin-1-yl)-N-methylacetamide]: the negative-log IC50 (pIC50) was 8.05 in test [1], 7.82 in test [2] and 4.59 in test [3].
